Reference: patent US10238667B2, “Vitamin D receptor/SMAD genomic circuit gates fibrotic response” (Salk Institute for Biological Studies, priority 2013, dated 2019)

Legend:
LX-2 cells = assay: TGFβ1-induced fibrotic gene expression (RT-qPCR, siRNA) in LX-2 cells; type: cell-based, human
Protocol: FIGS. 4A-4C. VDR Signaling Suppresses TGFβ-induced Pro-Fibrotic Genes. (A) Heat map comparing 519 differentially expressed genes in freshly isolated rat HSCs (quiescent HSCs, Q-HSCs), activated HSCs (A-HSCs, 3 days culture on plastic) and cells cultures in the presence of 10 nM 1,25(OH)2D3 (A-HSCs+1,25(OH)2D3). Euclidean clustering of both rows and columns using log2 transformed microarray expression data, n=2 per treatment group. (B) Heat map of fold expression change of genes involved in fibrosis in primary rat HSCs treated with TGFβ1 (1 ng/ml) and TGFβ1 plus 1,25(OH)2D3 (100 nM) for 24 hours, n=2 per treatment group. […] Data represents the mean±SEM of at least three independent experiments performed in triplicate. Asterisks denote statistically significant differences (Student's unpaired t-test, *p<0.05, **p<0.01).
LX-2 cells, a generous gift from Professor Scott Friedman, Mount Sinai School of Medicine, New York, N.Y., were cultured as described previously (Xu et al., 2005). […] For luciferase assays, DNA transfections were performed using Fugene 6 (Roche) following the manufacturer's instructions. […] Quantitative PCR was performed in technical triplicates using SYBR Green reagent (Biorad). The relative standard curve method was used for quantitation (Biorad). Expression levels were calculated by normalization to either Gapdh (mouse) or U36B4 (human) quantities. […]

SMAD3 = assay: ChIP-Seq signal intensity at VDR/SMAD3 co-occupied sites in LX-2 cells (SMAD3); type: cell-based, human; details: TGFβ1 1 ng/ml ± calcipotriol 100 nM, 4 hours
Description: FIGS. 10A-10G. Genomic Antagonism between VDR and SMAD. […] The three co-occupied sites are designated as 1, 2 and 3. (D) and (F) ChIP-qPCR at COL1A1 regulatory region #1 co-bound by VDR and SMAD3 in LX-2 cells treated as above. (E) and (G) ChIP-qPCR at COL1A1 regulatory region #1 of control (siCNTL), VDR-specific (siVDR), or SMAD3-specific (siSMAD3) siRNA transfected LX-2 cells treated as above. Occupancy is expressed relative to input chromatin. Data represents the mean±SEM of at least three independent experiments performed in triplicate. Asterisks denote statistically significant differences (Student's t-test, *p<0.05, **p<0.01).
Cells were then harvested for ChIP assay. The experimental procedure for ChIP was as previously described (Barish et al., 2010). […]
The procedure was as previously described (Barish et al., 2010). Briefly, short DNA reads were aligned against the human hg18 reference genome (NCBI Build 36.1) using the Illumina Pipeline Suite v1.7. Reads were aligned using the Bowtie aligner allowing up to 2 mismatches in the read. […] The threshold for the number of tags that determine a valid peak was selected for a false discovery rate of <0.0001, as empirically determined by repeating the peak finding procedure using randomized tag positions. […]

primary mouse HSCs = assay: Fibrotic gene expression in primary mouse HSCs; type: cell-based; details: primary mouse HSCs (data not shown)
Protocol: HSCs were isolated from 10-week old male C57BL/6J mice and Wistar rats by in situ pronase, collagenase perfusion and single-step Histogenz gradient as previously reported (Hendriks et al., 1985; Knook et al., 1982). Isolated HSCs were cultured in DMEM (Mediatech) containing 20% FBS (Hyclone) on 6-well plates for 40 hours prior to end-point assays.
LX-2 cells, a generous gift from Professor Scott Friedman, Mount Sinai School of Medicine, New York, N.Y., were cultured as described previously (Xu et al., 2005). […] For luciferase assays, DNA transfections were performed using Fugene 6 (Roche) following the manufacturer's instructions. […] RT-qPCR, total RNA was purified following TRIzol extraction and treated with DNaseI (Invitrogen). cDNA synthesis was carried out with iScript RT Supermix (Biorad). Quantitative PCR was performed in technical triplicates using SYBR Green reagent (Biorad). The relative standard curve method was used for quantitation (Biorad). Expression levels were calculated by normalization to either Gapdh (mouse) or U36B4 (human) quantities.

C=C1/C(=C\C=C2/CCC[C@]3(C)[C@@H]([C@H](C)/C=C/[C@@H](O)C4CC4)CC[C@@H]23)C[C@@H](O)C[C@@H]1O [calcipotriol, 1α,24-(OH)2-24-cyclopropyl-D3]
fibrotic gene expression (LX-2 cells): potently repressed | calcipotriol-mediated repression of TGFβ1 induced gene expression after loss of VDR (LX-2 cells; siVDR RNAi, Cal 100 nM, TGFβ1 1 ng/ml, 16 hours): abolished | TGFβ-induced recruitment of SMAD3 globally compromised (SMAD3): ~1.5 fold | fibrotic gene expression (primary mouse HSCs): potently repressed
